What all share (format): binding
For experiment [1], the target named is T1, mouse CD23 CRD (Mus musculus, UniProt P20693).
T1 construct: gene Fcer2
T1 sequence (P20693 185-298 limits assumed): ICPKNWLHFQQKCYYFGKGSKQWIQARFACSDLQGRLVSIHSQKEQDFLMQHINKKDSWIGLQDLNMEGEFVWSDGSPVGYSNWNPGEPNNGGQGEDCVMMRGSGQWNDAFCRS
Description: solid-phase competition with horseradish peroxidase reporter, immobilized biotin-tagged CRD. The note with it: pH 7.8, 2.5 mM CaCl2, 150 mM NaCl, 4 °C, competitive, KI approximates KD.

Experiment [2] deals with T2, cow CD23 CRD (Bos taurus, UniProt E1BIQ4).
T2 construct: gene FCER2; untagged for crystals; C-terminal biotinylation tag LNDIFEAQKIEWHE for solid-phase assays
T2 sequence (E1BIQ4 169-302): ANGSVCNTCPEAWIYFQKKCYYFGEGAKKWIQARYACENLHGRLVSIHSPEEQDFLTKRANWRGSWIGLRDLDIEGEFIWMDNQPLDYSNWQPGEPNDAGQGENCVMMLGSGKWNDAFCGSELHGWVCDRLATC
The experiment is described as above. The note with it: pH 7.8, 2.5 mM CaCl2, 150 mM NaCl, 4 °C, competitive, KI approximates KD. The source says: solid-phase competition with horseradish peroxidase reporter, immobilized biotin-tagged CRD on cow CD23 CRD | The three monosaccharides with highest affinity are mannose, fucose, and GlcNAc

Experiment [3] deals with T2, cow CD23 CRD. Described as above. The note with it: pH 7.8, 2.5 mM CaCl2, 150 mM NaCl, 4 °C; competitive.
Experiment [4] concerns the target T2, cow CD23 CRD. The experiment can be described thus: solid-phase competition with horseradish peroxidase reporter, immobilized biotin-tagged CRD; also crystal structure at […] Å (untagged CRD).
Setting [5] is: may have been tested as methyl glycoside.

Broadly, the Ki is a measure of affinity in units of concentration, obtained from inhibition or displacement. A higher Ki goes with lower affinity. In the case of `CC(=O)N[C@H]1C(O)O[C@H](CO)[C@@H](O)[C@@H]1O` (some centres unmarked) [GlcNAc], the Ki came out at 5200 µM in experiment [1] and 1100 µM in experiment [2].

On to `CC(=O)N[C@H]1[C@H](O[C@H]2[C@H](O)[C@@H](NC(C)=O)C(O)O[C@@H]2CO)O[C@H](CO)[C@@H](O[C@@H]2O[C@H](CO[C@H]3O[C@H](CO[C@H]4O[C@H](CO)[C@@H](O)[C@H](O)[C@@H]4O[C@H]4O[C@H](CO)[C@@H](O)[C@H](O)[C@@H]4O)[C@@H](O)[C@H](O[C@H]4O[C@H](CO)[C@@H](O)[C@H](O)[C@@H]4O[C@H]4O[C@H](CO)[C@@H](O)[C@H](O)[C@@H]4O)[C@@H]3O)[C@@H](O)[C@H](O[C@H]3O[C@H](CO)[C@@H](O)[C@H](O)[C@@H]3O[C@H]3O[C@H](CO)[C@@H](O)[C@H](O)[C@@H]3O[C@H]3O[C@H](CO)[C@@H](O)[C@H](O)[C@@H]3O)[C@@H]2O)[C@@H]1O` (some centres unmarked) [Man9GlcNAc2], for which, in experiment [3], the “ratio of affinities relative to α-methyl mannoside” value is 240 ± 50 fold.

`C[C@@H]1OC(O)[C@@H](O)[C@H](O)[C@@H]1O` (some centres unmarked) [fucose]: the values for the Ki in experiment [1] (setting [5]) and in experiment [2] (setting [5]) were 8400 µM and 1800 µM, respectively.

In the case of `OC[C@H]1OC(O)[C@@H](O)[C@@H](O)[C@@H]1O` (some centres unmarked) [mannose], the Ki in experiment [1] was 5700 µM; in experiment [2] it was 1600 µM.

For `CO[C@H]1O[C@H](CO)[C@@H](O)[C@H](O)[C@@H]1O` [α-methyl mannoside], in experiment [4], the affinity, expressed as Ki, was 1600 µM.

The values are drawn from publication PMC6791321, “CD23 is a glycan-binding receptor in some mammalian species” (The Journal of Biological Chemistry, 2019).
